Assay results published in US6362212B1, “Oxime derivative and bactericide containing the same as active ingredient” (Shionogi & Company, Ltd., priority 1994, dated 2002).

Key:
[1] = test system: Erysiphe graminis f. sp. tritici; assay: Controlling effect on Erysiphe graminis f. sp. tritici by foliage application (pot experiment); assay type: in vivo; conditions: foliage spray on wheat (cv. NORIN No. 61) seedlings, infected area after 10 days in greenhouse at 20° C.; for pest or weed control at 500 ppm: Blumeria graminis, foliar, 240 h, read-out: Controlling effect on ErYsiphe graminis f. sp. tritici by foliage application at 500 ppm (percent control)
Outline: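 Wheat seedlings (cv. NORIN No. 61, 2-3 weeks old) sprayed with compound in DMF diluted in water with spreader, then inoculated with conidia 24 hours later. Kept in greenhouse at 20 °C for 10 days; percent control calculated from infected leaf area.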

[2] = test system: Sphaerotheca fuliginea; assay: Controlling effect on Sphaerotheca fuliginea by foliage application (pot experiment); assay type: in vivo; conditions: foliage spray on cucumber (cv. TSUKUBASHIROIBO) first leaves, infected area after 10 days in greenhouse at 20° C.; for pest or weed control at 500 ppm: Podosphaera fuliginea, in Cucumis sativus, foliar, 240 h, read-out: Controlling effect on Sphaerotheca fuliginea by foliage application at 500 ppm (percent control)
Outline: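 First leaves of cucumber seedlings, 2-3 weeks old, were sprayed with compound (DMF solution diluted in water with spreader). They were inoculated 24 h later with a Sphaerotheca fuliginea conidia spray and kept 10 days at 20° C in a greenhouse. Percent control was calculated from infected leaf area.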

[3] = test system: Puccinia coronata; assay: Controlling effect on Puccinia coronata by foliage application (pot experiment); assay type: in vivo; conditions: foliage spray on oat (cv. PC-38) seedlings, infected area after 1 day moist chamber and 8 days greenhouse at 20° C.
Outline: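 Oat seedlings (cv. PC-38, 2–3 weeks old) were sprayed with compound in DMF diluted with spreader-containing water, then inoculated 24 h later with P. coronata spores diluted in talc. Plants were held 1 day in a moist chamber at 20° C, then 8 days in a greenhouse at 20° C; percent control came from infected leaf area.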

[4] = test system: Pyricularia oryzae; assay type: in vivo; conditions: foliage spray on rice seedlings (cv. […]), number of lesions six days after the inoculation
[5] = test system: Botrytis cinerea; assay: Controlling effect on Botrytis cinerea by foliage application (pot experiment); assay type: in vivo; conditions: foliage spray on cucumber (cv. TSUKUBASHIROIBO) first leaves, mycelial disks, lesion diameter after 3 days in moist chamber at 20° C.
Experimental: The following Test Examples illustrate the effects of the fungicide of the present invention. (I. Controlling effects on various plant diseases by foliage application (pot experiment)) A test compound was dissolved in a small amount of N,N-dimethylformamide, and the solution was diluted to a given concentration with distilled water containing a spreader. Thus, a liquid sample to be tested was prepared. The liquid sample was sprayed to test plants, and 24 hours thereafter, pathogens were inoculated by the method described below. […] The seeds of cucumber ([…]) were sown in plastic cups (each 9 cm in diameter), followed by cultivation for 2 to 3 weeks. The test compound in the form of a solution or suspension was sprayed to the surface of their first leaves, and mycelial disks (4 mm φ) of Botrytis cinerea cultured on the potato sucrose agar medium were put on the leaf surfaces to inoculate. the cucumber seedlings with the pathogen. The plants were kept in a moist chamber at 20° C. for 3 days. The diameter of the lesions on the leaves was measured and the percent control was calculated.

[6] = test system: Pseudoperonospora cubensis; assay: Controlling effect on Pseudoperonospora cubensis by foliage application (pot experiment); assay type: in vivo; conditions: foliage spray on cucumber (var. TSUKUBASHIROIBO) first leaves, lesion area after 10 days in moist chamber at 20° C.
Outline: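 Cucumber plants grown 2–3 weeks were sprayed on first leaves with compound (DMF solution diluted in water with spreader); 24 h later, Pseudoperonospora cubensis zoosporangia suspension dropped on leaves. Plants held in moist chamber at 20° C for 10 days; lesion area observed and percent control calculated.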

SMILES | pest or weed control at 500 ppm [1] [%] | melting point [°C] | pest or weed control at 500 ppm [2] [%] | Controllng effect on Puccinia coronata by foliage application at 500 ppm (percent control) [3] [percent control] | Controlling effect on PYricularia orYzae by foliage application at 500 ppm (percent control) [4] [percent control] | Controlling effect on Botrytis cinerea by foliage application at 500 ppm (percent control) [5] [percent control] | Controlling effect on ErYsiphe graminis f. sp. tritici by foliage application at 500 ppm (percent control) [1] [percent control] | Controlling effect on Sphaerotheca fuliginea by foliage application at 500 ppm (percent control) [2] [percent control] | Controlling effect on Pseudoperonospora cubensis by foliage application at 500 ppm (percent control) [6] [percent control]
CON=C(c1nnn(C)n1)c1ccccc1COc1cc(C)ccc1C [Compound No. 2036, 2-(2,5-dimethylphenoxymethyl)phenyl 2-methyl-2H-tetrazol-5-yl ketone O-methyloxime] | 90 | 131 to 132 | 100 |  |  |  |  |  | 
CON=C(c1ccon1)c1ccccc1COc1cc(C)ccc1C (single isomer, unassigned) [Compound No. 336, 2-(2,5-dimethylphenoxymethyl)phenyl isoxazol-3-yl ketone O-methyloxime] | 97 | 104 to 108 | 100 | 100 | 90 |  |  |  | 
CON=C(c1nnco1)c1ccccc1COc1cc(C)ccc1C [Compound No. 736, 2-(2,5-dimethylphenoxymethyl)phenyl 1,3,4-oxadiazol-2-yl ketone O-methyloxime] | 100 | 134 to 135 | 100 | 100 |  |  |  |  | 
CON=C(c1ncon1)c1ccccc1COc1ccc(Cl)cc1 [Compound No. 807, 2-(4-chlorophenoxymethyl)phenyl 1,2,4-oxadiazol-3-yl ketone O-methyloxime] |  | 107 to 108 | 100 |  |  |  |  |  | 
CON=C(c1ccccc1COc1cccc(Cl)c1)n1ccnc1 [Compound No. 6, 1-[2-(3-chlorophenoxymethyl)-α-methoxyiminobenzyl]imidazole] | 100 | 96.5 to 97.5 |  | 100 | 90 | 100 |  |  | 
CON=C(c1ccccc1COc1ccccc1C)n1ccnc1 [Compound No. 13] |  |  |  | 97 | 90 | 70 | 90 | 100 | 
CON=C(c1cc(C)no1)c1ccccc1CON=C(C)c1ccc(Cl)c(Cl)c1 [compound 2528, 2-(3,4-dichloro-α-methylbenzylideneaminooxymethyl)phenyl 3-methylisoxazol-5-yl ketone O-methyloxime] |  | 84 to 85 | 100 |  |  |  |  |  | 100
CCON=C(c1ccccc1COc1ccccc1)n1cncc1C [compound 215] |  |  |  | 90 | 70 | 97 | 90 | 100 | 
CON=C(c1ccccc1COc1ccc(Cl)cc1)n1ccnc1 [Compound No. 7] |  |  |  | 97 | 97 | 100 | 100 | 100 | 
CON=C(c1cc(C)no1)c1ccccc1COc1ncc(C(F)(F)F)cc1Cl [Compound No. 690, 2-(3-chloro-5-trifluoromethyl-2-pyridyloxymethyl)phenyl 3-methylisoxazol-5-yl ketone O-methyloxime] |  | 77 to 79 |  |  |  |  |  |  | 
CON=C(c1ccccc1COc1ccc(C)cc1)n1ccnc1 [Compound No. 15] |  |  |  | 100 | 90 | 100 | 97 | 100 | 
CON=C(c1ncno1)c1ccccc1COc1ccc(Cl)cc1 [Compound No. 1584, 2-(4-chlorophenoxymethyl)phenyl 1,2,4-oxadiazol-5-yl ketone O-methyloxime] | 100 | 96 to 97.5 | 100 | 70 | 70 |  |  |  | 
